Data as given in patent US20260315564A1, “THE USE OF TP3 (THYMOPENTIN ANALOG) BY INCREASING THE ACTIVITY AND NUMBER OF T-CELLS INVOLVED IN THE DEFENSE MECHANISM OF THE IMMUNE SYSTEM OF MAMMALS, FOR THE PREVENTION OR TREATMENT OF DISEASES TO EXTEND THE AVERAGE LIFESPAN” (priority 2023, published 2026).
Marks after values point to notes of the source that are not given here. Residues, ends and D or L forms follow the SMILES beside them.

Key:
[1] = test system: plaque-forming cells (PFC); experiment: Number of plaque-forming cells (PFC) in Balb/c nu/nu mice; format: in vivo; conditions: for number of plaque-forming cells (PFC): n = 8/group, control 55.7 (TP5), 53.0 (TP3)
Procedure: (§1) 1.3./Determination of the number of plaque-forming cells (PFC) (using rat spleen cells) The chopped splenocytes were placed in a culture medium (Parker 199) and then shaken with a shaker for 1 minute. The cells were suctioned from the surface of the rapidly settling tissue debris. Red blood cells were removed osmotically. Cell suspensions were adjusted to 107/ml. The cell suspensions were mixed with a 15% BVVT cell suspension in a ratio of 2:1. PFC was determined with the mixture using a modified chamber technique according to Channingham et al., 1966). Before filling the chamber, 50 μl of fresh diluted guinea pig serum (1:20) was added. The chambers (2-2/slide) were incubated (370C 45′) after sealing with paraffin, the formed plaques were counted under a microscope (at 400× magnification) within 2 hours Marker tests related to the rejection reaction of an adult thymus-depleted mouse skin graft 1.4./Rejection of skin transplants in nude mice after treatment with TP fragments (Snell et al., Transplantation 5, 492, 1967).
Mice were treated for 4 weeks 3 times a week (every other day) with TP fragments (10-9, 10-8, 10-7//10-3, 10-2, 10-1 M/animal ip. (Veys et al., 1983) at the end of the treatments ([…]), the mice were immunized (with 0.5 ml 1% BVVT suspension ip. The immune response was expressed in antibody titers as above).

[2] = test system: PFC (plaque-forming cells); experiment: PFC (plaque-forming cells) in H. Wistar rats; format: in vivo, Hannover Wistar rats (newborn); conditions: for PFC (plaque-forming cells): 1x/ip, control 53.9 ± 8.8; for PFC (plaque-forming cells) / number of PFC: n = 12; for number of PFC: 9x (3x3 weeks/ip), control 139 ± 12.7
Procedure: Rats (Hannover Wistar) were treated (i.p.) within 6-12 hours after birth. Treatments after birth in a single session or in another examination • on the 7th day after the first treatment; • another group was vaccinated 3 times a week after the first day of […]. treatment • in a subsequent group treated over three weeks (9× in total) (10-3,10-5,10-7//10-9, 10-11,10-12, 10-13 M/animal, i.p). • in the fourth test series, the animals were treated with TP fragments at 0, 1, 2, 4, or 5 days of age. The rats were unanimously immunized on the 14th day after birth (1% BVVT with 0.5 ml cell suspension, i.p.). Immune responses were measured after 7 days on day 21 of the experiment.
Rats (Hannover Wistar) were treated (i.p.) within 6-12 hours after birth. Treatments after birth in a single session or in another examination • on the 7th day after the first treatment; • another group was vaccinated 3 times a week after the first day of treatment. • in a subsequent group, the treatments took place over three weeks (9× in total) (10-3,10-5,10-7//10-9, 10-11,10-12,10-13 M/animal, i.p.). • in the fourth test series, the animals were treated with TP fragments at 0, 1, 2, 4, or 5 days of age. The rats were randomly immunized on the 14th day after birth (1% BVVT with 0.5 ml cell suspension, i.p.). Immune responses were measured after 7 days on day 21 of the experiment. 1.2. Determination of anti-BVVT Ab titers (from rat blood samples ex vivo) • with the haemagglutination method (Takátsy and Fürész, 1955) on 96-well plates (Flow). 50 ul of 0.9% NaCl solution was added to each well. The sera (50 μl) were diluted by half dilution in 12 steps, mixed with 25 pμl 2% BVVT cell suspension, and incubated (1 hour at 37 °C). The hemagglutination titers of the sera are determined. Values expressed in logarithmic values refer to total agglutination.
as §1

DTH reaction (PPD) = experiment: Delayed-type hypersensitivity (DTH) reaction in guinea pigs; format: in vivo; conditions: n = 12/group, PPD 217.9
[3] = 12-24 months, Friedmann 1985, in words; cited from earlier work
T cells = conditions: Schlesinger et al. 1978, in words; cited from earlier work

CC(C)[C@H](NC(=O)[C@H](CC(=O)O)NC(=O)[C@H](CCCCN)NC(=O)[C@@H](N)CCCN=C(N)N)C(=O)N[C@@H](Cc1ccc(O)cc1)C(=O)O [TP5] (H-RKDVY-OH)
number of plaque-forming cells (PFC) ([1]; 10^-1 M/mouse (M/eger)): 76.5* | number of plaque-forming cells (PFC) ([1]; 10^-2 M/mouse (M/eger)): 73.0* | number of plaque-forming cells (PFC) ([1]; 10^-3 M/mouse (M/eger)): 67.4 | increase in number of PFC cells ([1]; 10^-3 M/mouse/i.p.): 35% | number of plaque-forming cells (PFC) ([1]; 10^-6 M/mouse (M/eger)): 72.5* | number of plaque-forming cells (PFC) ([1]; 10^-7 M/mouse (M/eger)): 71.0* | number of plaque-forming cells (PFC) ([1]; 10^-8 M/mouse (M/eger)): 9.5 | PFC (plaque-forming cells) ([2]; 10^-6 M/animal): 71 | number of PFC ([2]; 10^-6 M/animal): 159 | PFC (plaque-forming cells) ([2]; 10^-7 M/animal): 129* | number of PFC ([2]; 10^-7 M/animal): 203* | PFC (plaque-forming cells) ([2]; 10^-8 M/animal): 148* | number of PFC ([2]; 10^-8 M/animal): 223* | PFC (plaque-forming cells) ([2]; 10^-9 M/animal): 90* | number of PFC ([2]; 10^-9 M/animal): 126 | PFC (plaque-forming cells) ([2]; 10^-10 M/animal): 76 | number of PFC ([2]; 10^-10 M/animal): 185* | PFC (plaque-forming cells) ([2]; 10^-11 M/animal): 75 | number of PFC ([2]; 10^-11 M/animal): 162 | PFC (plaque-forming cells) ([2]; 10^-13 M/animal): 67 | number of PFC ([2]; 10^-13 M/animal): 143 | potency TP3 versus TP5 (PFC) ([2]; comparison, in words): TP3=TP5 potency | DTH reaction, skin redness (bőrpir) (DTH reaction (PPD); 0.1 mg/kg/s.c.): 127.7* mm/π | DTH reaction, skin redness (bőrpir) (DTH reaction (PPD); 1.0 mg/kg/s.c.): 158.1 mm/π | DTH reaction, skin redness (bőrpir) (DTH reaction (PPD); 20.0 mg/kg/s.c.): 194.6 mm/π | safety in patients [3]: well-used, safe drug candidate | differentiation of T cells (T cells): induces the differentiation of T cells
